# Source: PubChem BioAssay (NCI)
#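 In this assay, cells in 96-well plates receive the compound at five concentrations for 48 hours. Endpoints are linearly interpolated between the surrounding concentrations. TGI: concentration producing complete growth inhibition.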
# Experiments:
# Test in all cases: NCI-60 cell line screen, 48 h
# SK-MEL-2 melanoma = test system: SK-MEL-2 melanoma
# HCC-2998 colon = test system: HCC-2998 colon
# CCRF-CEM leukemia = test system: CCRF-CEM leukemia
# SNB-75 CNS = test system: SNB-75 CNS
# HOP-92 NSCLC = test system: HOP-92 NSCLC
# UO-31 renal = test system: UO-31 renal
# SK-MEL-5 melanoma = test system: SK-MEL-5 melanoma
# SF-539 CNS = test system: SF-539 CNS
# SN12C renal = test system: SN12C renal
# M14 melanoma = test system: M14 melanoma
# OVCAR-3 ovarian = test system: OVCAR-3 ovarian
# SK-OV-3 ovarian = test system: SK-OV-3 ovarian
# BT-549 breast = test system: BT-549 breast
# HCT-116 colon = test system: HCT-116 colon
# HS 578T breast = test system: HS 578T breast
# MALME-3M melanoma = test system: MALME-3M melanoma
# SNB-19 CNS = test system: SNB-19 CNS
# 786-0 renal = test system: 786-0 renal
# SF-295 CNS = test system: SF-295 CNS
# KM12 colon = test system: KM12 colon
# HCT-15 colon = test system: HCT-15 colon
# PC-3 prostate = test system: PC-3 prostate
# MCF7 breast = test system: MCF7 breast
# MDA-N = test system: MDA-N
# U251 CNS = test system: U251 CNS
# DU-145 prostate = test system: DU-145 prostate
# NCI-H460 lung = test system: NCI-H460 lung
# NCI-H226 lung = test system: NCI-H226 lung
# RPMI-8226 leukemia = test system: RPMI-8226 leukemia
# SW-620 colon = test system: SW-620 colon
# MDA-MB-435 = test system: MDA-MB-435
# IGROV1 ovarian = test system: IGROV1 ovarian
# HOP-62 NSCLC = test system: HOP-62 NSCLC
# K-562 leukemia = test system: K-562 leukemia
# NCI/ADR-RES ovarian = test system: NCI/ADR-RES ovarian
# EKVX NSCLC = test system: EKVX NSCLC
# SF-268 CNS = test system: SF-268 CNS
# HT29 colon = test system: HT29 colon
# SK-MEL-28 melanoma = test system: SK-MEL-28 melanoma
# UACC-62 melanoma = test system: UACC-62 melanoma
# OVCAR-5 ovarian = test system: OVCAR-5 ovarian
# A498 renal = test system: A498 renal
# ACHN renal = test system: ACHN renal
# NCI-H522 lung = test system: NCI-H522 lung
# T-47D breast = test system: T-47D breast
# SR leukemia = test system: SR leukemia
# CAKI-1 renal = test system: CAKI-1 renal
# OVCAR-4 ovarian = test system: OVCAR-4 ovarian
# A549 NSCLC = test system: A549 NSCLC
# RXF 393 renal = test system: RXF 393 renal
# HL-60(TB) leukemia = test system: HL-60(TB) leukemia
# MDA-MB-231 breast = test system: MDA-MB-231 breast
# TK-10 renal = test system: TK-10 renal
# COLO 205 colon = test system: COLO 205 colon
# UACC-257 melanoma = test system: UACC-257 melanoma
# NCI-H23 lung = test system: NCI-H23 lung
# DLD-1 colon = test system: DLD-1 colon
# LOX IMVI melanoma = test system: LOX IMVI melanoma
# LXFL 529 NSCLC = test system: LXFL 529 NSCLC
# DMS 273 small cell lung = test system: DMS 273 small cell lung
# M19-MEL melanoma = test system: M19-MEL melanoma
# DMS 114 small cell lung = test system: DMS 114 small cell lung
# KM20L2 colon = test system: KM20L2 colon
# MOLT-4 leukemia = test system: MOLT-4 leukemia
# OVCAR-8 ovarian = test system: OVCAR-8 ovarian
smiles,measurement,setting,value
CSc1ccc2c(c1)c(CCN)c(C)n2Cc1ccccc1Cl,TGI,SK-MEL-2 melanoma,3.26 µM
same,TGI,HCC-2998 colon,2.04 µM
same,TGI,CCRF-CEM leukemia,3.89 µM
same,TGI,SNB-75 CNS,3.04 µM
same,TGI,HOP-92 NSCLC,2.75 µM
same,TGI,UO-31 renal,2.96 µM
same,TGI,SK-MEL-5 melanoma,3.11 µM
same,TGI,SF-539 CNS,2.26 µM
same,TGI,SN12C renal,3.06 µM
same,TGI,M14 melanoma,3.32 µM
same,TGI,OVCAR-3 ovarian,3.3 µM
same,TGI,SK-OV-3 ovarian,4.28 µM
same,TGI,BT-549 breast,33.5 µM
same,TGI,HCT-116 colon,3.07 µM
same,TGI,HS 578T breast,3.67 µM
same,TGI,MALME-3M melanoma,3.34 µM
same,TGI,SNB-19 CNS,3.32 µM
same,TGI,786-0 renal,3.42 µM
same,TGI,SF-295 CNS,3.26 µM
same,TGI,KM12 colon,3.32 µM
same,TGI,HCT-15 colon,4.45 µM
same,TGI,PC-3 prostate,2.86 µM
same,TGI,MCF7 breast,3.11 µM
same,TGI,MDA-N,3.11 µM
same,TGI,U251 CNS,3.06 µM
same,TGI,DU-145 prostate,3.04 µM
same,TGI,NCI-H460 lung,3.02 µM
same,TGI,NCI-H226 lung,4.1 µM
same,TGI,RPMI-8226 leukemia,3.26 µM
same,TGI,SW-620 colon,3.89 µM
same,TGI,MDA-MB-435,3.08 µM
same,TGI,IGROV1 ovarian,3.25 µM
same,TGI,HOP-62 NSCLC,2.62 µM
same,TGI,K-562 leukemia,2.83 µM
same,TGI,NCI/ADR-RES ovarian,4.77 µM
same,TGI,EKVX NSCLC,3.12 µM
same,TGI,SF-268 CNS,3.4 µM
same,TGI,HT29 colon,3.09 µM
same,TGI,SK-MEL-28 melanoma,3.22 µM
same,TGI,UACC-62 melanoma,3.05 µM
same,TGI,OVCAR-5 ovarian,3.78 µM
same,TGI,A498 renal,3.1 µM
same,TGI,ACHN renal,3.06 µM
same,TGI,NCI-H522 lung,3 µM
same,TGI,T-47D breast,3.09 µM
same,TGI,SR leukemia,> 100 µM
same,TGI,CAKI-1 renal,4.1 µM
same,TGI,OVCAR-4 ovarian,3.29 µM
same,TGI,A549 NSCLC,3.18 µM
same,TGI,RXF 393 renal,2.83 µM
same,TGI,HL-60(TB) leukemia,3.2 µM
same,TGI,MDA-MB-231 breast,3.66 µM
same,TGI,TK-10 renal,3.15 µM
same,TGI,COLO 205 colon,2.99 µM
same,TGI,UACC-257 melanoma,3.29 µM
same,TGI,NCI-H23 lung,3.86 µM
Cc1ccc(S(=O)(=O)NNS(C)(=O)=O)cc1,TGI,SK-MEL-2 melanoma,> 100 µM
same,TGI,HCC-2998 colon,> 100 µM
same,TGI,CCRF-CEM leukemia,> 100 µM
same,TGI,DLD-1 colon,> 100 µM
same,TGI,SNB-75 CNS,> 100 µM
same,TGI,UO-31 renal,> 100 µM
same,TGI,SK-MEL-5 melanoma,> 100 µM
same,TGI,SF-539 CNS,> 100 µM
same,TGI,LOX IMVI melanoma,> 100 µM
same,TGI,SN12C renal,> 100 µM
same,TGI,M14 melanoma,> 100 µM
same,TGI,LXFL 529 NSCLC,> 100 µM
same,TGI,OVCAR-3 ovarian,> 100 µM
same,TGI,HCT-116 colon,> 100 µM
same,TGI,MALME-3M melanoma,> 100 µM
same,TGI,DMS 273 small cell lung,> 100 µM
same,TGI,SNB-19 CNS,> 100 µM
same,TGI,786-0 renal,> 100 µM
same,TGI,SF-295 CNS,> 100 µM
same,TGI,KM12 colon,> 100 µM
same,TGI,HCT-15 colon,> 100 µM
same,TGI,U251 CNS,> 100 µM
same,TGI,NCI-H460 lung,> 100 µM
same,TGI,M19-MEL melanoma,> 100 µM
same,TGI,RPMI-8226 leukemia,> 100 µM
same,TGI,SW-620 colon,> 100 µM
same,TGI,IGROV1 ovarian,> 100 µM
same,TGI,HOP-62 NSCLC,> 100 µM
same,TGI,K-562 leukemia,> 100 µM
same,TGI,EKVX NSCLC,> 100 µM
same,TGI,SF-268 CNS,> 100 µM
same,TGI,HT29 colon,> 100 µM
same,TGI,DMS 114 small cell lung,> 100 µM
same,TGI,UACC-62 melanoma,> 100 µM
same,TGI,ACHN renal,> 100 µM
same,TGI,KM20L2 colon,> 100 µM
same,TGI,MOLT-4 leukemia,> 100 µM
same,TGI,NCI-H522 lung,> 100 µM
same,TGI,SR leukemia,> 100 µM
same,TGI,CAKI-1 renal,> 100 µM
same,TGI,OVCAR-4 ovarian,> 100 µM
same,TGI,A549 NSCLC,> 100 µM
same,TGI,RXF 393 renal,> 100 µM
same,TGI,TK-10 renal,> 100 µM
same,TGI,COLO 205 colon,> 100 µM
same,TGI,OVCAR-8 ovarian,> 100 µM
same,TGI,UACC-257 melanoma,> 100 µM
same,TGI,NCI-H23 lung,> 100 µM
CCOS(=O)(=O)c1ccc(-c2c3nc(c(-c4ccc(S(=O)(=O)OCC)cc4)c4ccc([nH]4)c(-c4ccc(S(=O)(=O)OCC)cc4)c4nc(c(-c5ccc(S(=O)(=O)OCC)cc5)c5ccc2[nH]5)C=C4)C=C3)cc1,TGI,SK-MEL-2 melanoma,> 31.6 µM
same,TGI,HCC-2998 colon,> 31.6 µM
same,TGI,CCRF-CEM leukemia,> 31.6 µM
same,TGI,HOP-92 NSCLC,> 100 µM
same,TGI,UO-31 renal,> 31.6 µM
same,TGI,SK-MEL-5 melanoma,> 31.6 µM
same,TGI,SF-539 CNS,> 31.6 µM
same,TGI,SN12C renal,> 31.6 µM
same,TGI,M14 melanoma,> 31.6 µM
same,TGI,SK-OV-3 ovarian,> 31.6 µM
same,TGI,BT-549 breast,> 31.6 µM
same,TGI,HCT-116 colon,> 31.6 µM
same,TGI,HS 578T breast,> 31.6 µM
same,TGI,MALME-3M melanoma,> 31.6 µM
same,TGI,SNB-19 CNS,> 31.6 µM
same,TGI,786-0 renal,> 31.6 µM
same,TGI,SF-295 CNS,> 31.6 µM
same,TGI,KM12 colon,> 31.6 µM
same,TGI,HCT-15 colon,> 31.6 µM
same,TGI,PC-3 prostate,> 31.6 µM
same,TGI,MCF7 breast,> 31.6 µM
same,TGI,MDA-N,> 31.6 µM
same,TGI,U251 CNS,> 31.6 µM
same,TGI,DU-145 prostate,> 31.6 µM
same,TGI,NCI-H460 lung,> 31.6 µM
same,TGI,NCI-H226 lung,> 100 µM
same,TGI,RPMI-8226 leukemia,> 31.6 µM
same,TGI,SW-620 colon,> 31.6 µM
same,TGI,MDA-MB-435,> 31.6 µM
same,TGI,IGROV1 ovarian,> 100 µM
same,TGI,NCI/ADR-RES ovarian,> 31.6 µM
same,TGI,EKVX NSCLC,> 31.6 µM
same,TGI,SF-268 CNS,> 31.6 µM
same,TGI,HT29 colon,> 100 µM
same,TGI,UACC-62 melanoma,> 31.6 µM
same,TGI,OVCAR-5 ovarian,> 31.6 µM
same,TGI,A498 renal,> 31.6 µM
same,TGI,ACHN renal,> 31.6 µM
same,TGI,MOLT-4 leukemia,> 31.6 µM
same,TGI,NCI-H522 lung,> 31.6 µM
same,TGI,T-47D breast,> 31.6 µM
same,TGI,SR leukemia,> 31.6 µM
same,TGI,CAKI-1 renal,> 31.6 µM
same,TGI,OVCAR-4 ovarian,> 31.6 µM
same,TGI,A549 NSCLC,> 31.6 µM
same,TGI,RXF 393 renal,> 31.6 µM
same,TGI,HL-60(TB) leukemia,> 31.6 µM
same,TGI,MDA-MB-231 breast,> 31.6 µM
same,TGI,TK-10 renal,> 31.6 µM
same,TGI,COLO 205 colon,> 31.6 µM
same,TGI,OVCAR-8 ovarian,> 31.6 µM
same,TGI,UACC-257 melanoma,> 31.6 µM
same,TGI,NCI-H23 lung,> 31.6 µM
COc1cccc2c1C(=O)c1c(O)c3c(c(O)c1C2=O)C[C@@](O)(C(=O)CO)CC3OC1CC(NCCOCC(OC(C)=O)OC(C)=O)C(O)C(C)O1 (stereo not given in full),TGI,CCRF-CEM leukemia,> 100 µM
same,TGI,DLD-1 colon,0.38 µM
same,TGI,SN12C renal,1.32 µM
same,TGI,LXFL 529 NSCLC,12.2 µM
same,TGI,SK-OV-3 ovarian,47.9 µM
same,TGI,SNB-19 CNS,> 100 µM
same,TGI,786-0 renal,3.16 µM
same,TGI,HCT-15 colon,0.0144 µM
same,TGI,U251 CNS,1.23 µM
same,TGI,SW-620 colon,1.71 µM
same,TGI,IGROV1 ovarian,3.04 µM
same,TGI,HOP-62 NSCLC,0.009 µM
same,TGI,K-562 leukemia,> 100 µM
same,TGI,CAKI-1 renal,> 100 µM
same,TGI,OVCAR-4 ovarian,31.1 µM
same,TGI,A549 NSCLC,> 100 µM
same,TGI,HL-60(TB) leukemia,> 100 µM
same,TGI,TK-10 renal,> 100 µM
